# Key:
# Format in all cases: in vivo
# [1] = tested on: DIO-NASH mice (C57Bl/6J male mice); assay: Liver fibrosis: collagen type I (col1a1) IHC staining in DIO-NASH mice; details: 50 mg/kg, p.o., b.i.d., 8 weeks
# Protocol: To assess the effect of the compounds of the invention in fibrosis of liver in the treatment of non-alcoholic fat liver disease, the collagen type I (a fibrosis marker) in liver was measured after the 8 weeks of the study where DIO-NASH mice (C57Bl/6J male mice) were treated with a hydrochloride salt of compound 4a during 8 weeks (50 mg/kg, p.o., b.i.d.), versus a pathological control of DIO-NASH mice and a non-pathological control LEAN-CHOW mice, both treated with the vehicle (0.9% NaCl).
# Type I collagen content was measured by IHC staining: Type I collagen (Southern Biotech, Cat. 1310-01) IHC was performed using standard procedures. Briefly, after antigen retrieval and blocking of endogenous peroxidase activity, liver slides were incubated with primary antibody. The primary antibody was detected using biotinylated secondary antibody and amplified using a vectastain-TSA-vectastain method a polymeric HRP-linker antibody conjugate. Next, the primary antibody was visualized with DAB as chromogen. Finally, sections were counterstained in hematoxylin and cover-slipped.
# [2] = tested on: DIO mice (C57Bl/6J male mice); assay: Insulin resistance (HOMA-IR), 36 days assay in DIO mice; details: 50 mg/kg orally twice daily for 36 days, days 1, 8, 15, 22, 29 and 36, vs saline control, similar to metformin 150 mg/kg
# Protocol: To assess the performance of the compounds disclosed in decreasing insulin resistance, DIO mice (C57Bl/6J male mice) were treated with hydrochloride salts of compounds 4a, 5a; and with compound 7a during 36 days, versus a control treated with saline (0.9% NaCl) and versus DIO mice treated with metformin as a positive control.
# For the assessment, 60 C57Bl/6 J male mice (16-week-old at delivery and 40 g of average weight), obtained from Charles River France put on high fat diet for 10 weeks. The animals were housed in ventilated and enriched housing cages (310×125×127 mm^3) throughout the experimental phase. Animals' cages litters were changed at least once a week. Mice were housed in groups of 10 mice on a normal 12 hours light cycle (at 08:00 pm lights were switched off), at 22±2° C. and 50±10% relative humidity. After reception, mice were maintained for three additional acclimation weeks. During the whole test (acclimation+treatment phase) a high fat diet (D12492 purchased from Research Diet Inc.; 60% fat) and tap water were provided ad libitum.
# After the acclimation period, mice were fasted for 6 hours and blood glucose and plasma insulin were measured. Ten animals, those with lower blood glucose/plasma insulin, were discarded from the study. […]
# Body weight were weekly measured as well as blood glucose and plasma insulin after a 6 hour-fasting.
# Blood glucose was measured by sampling blood from the tip of the tail: a drop of blood is collected and placed on a glucometer strip (Accu-Check® glucometer, Roche, Switzerland). Plasma insulin was detected via ELISA (Elisa Kit, Eurobio, France) using 5 μl samples.
# The Homeostatic model assessment-insulin resistance index (HOMA-IR), which is used to quantify insulin resistance, was calculated from fasting blood glucose, and plasma insulin values as follows: HOMA-IR=(mM glucose×μU/mL insulin)/22.5, being this constant a normalizing factor (Matthews et al., 1985, Diabetologia 28(7), 412-9).
# [3] = tested on: DIO-NASH mice (C57Bl/6J male mice); assay: Differential gene expression analysis by RNAseq in liver of DIO-NASH mice
# Protocol: The effect of the compounds of the invention in the development of liver fibrosis was also studied by differential gene expression analysis by RNAseq where DIO-NASH mice (C57Bl/6J male mice) were treated with a hydrochloride salt of compound 4a during 8 weeks (50 mg/kg, p.o., b.i.d.), versus a pathological control of DIO-NASH mice and a non-pathological control LEAN-CHOW mice, both treated with the vehicle (0.9% NaCl).
# The animals were kept and examined under the same conditions were used as in example 2.2. The liver biopsies were also carried out under the same conditions as in example 2.2. The DIO-NASH mice group were put on high fat diet (40% AMLN diet, D09100301 Research Diets, USA) and a control group (LEAN-CHOW) was put on a regular chow diet (Altromin 1324, Brogaarden, Denmark) for 35 weeks prior to the study.
# FIGS. 12 and 13 show the effect of treatment of DIO-NASH mice with a hydrochloride salt of compound 4a versus a control DIO-NASH mice group treated with vehicle and a LEAN-CHOW […] control group also treated with vehicle, in the expression of collagen genes which are fibrosis markers: collagen type I-alpha 1 (COL1A1) and alpha 2 (COL1A2), collagen type III alpha 1 (COL3A1), collagen V alpha 1 (COL5A1), alpha 2 (COL5A2) and alpha 3 (COL5A3), collagen type VI alpha 1 (COL6A1), alpha 2 (COL6A2) and alpha 3 (COL6A3).
# Results are given as expression level in RPKM for each mice group, wherein RPKM (Reads per kilo base per million mapped reads) is a method of quantifying gene expression from RNA sequencing data by normalizing for […] and the number of sequencing reads.
# Date expressed as mean±s.e.m. values from 6 animals. ***P<0.001 vs. NASH vehicle.
# [4] = tested on: DIO-NASH mice (C57Bl/6J male mice); assay: Liver toxicity: plasma ALT and AST, 8 weeks assay in DIO-NASH mice; details: 50 mg/kg, p.o., b.i.d., end of treatment, vs DIO-NASH vehicle
# Protocol: The assay was carried out to evaluate the effect of the compounds of the invention on liver toxicity for animals with non-alcoholic fat liver disease (DIO-NASH mice). For this assay, the effect of compound 4a in plasma Alanine Aminotransferase (ALT) and in plasma Aspartate Aminotransferase (AST) was evaluated. DIO-NASH mice (C57Bl/6J male mice) were treated with a hydrochloride salt of compound 4a during 8 weeks (50 mg/kg, p.o., b.i.d.), versus a pathological control of DIO-NASH mice and a non-pathological control LEAN-CHOW mice, both treated with the vehicle (0.9% NaCl). The animals were kept under the same conditions were used as in example 2.2. The DIO-NASH mice group were put on high fat diet (40% AMLN diet, D09100301 Research Diets, USA) and a control group (LEAN-CHOW) was put on a regular chow diet (Altromin 1324, Brogaarden, Denmark) for 35 weeks prior to the study.
# To evaluate Alanine transaminase (ALT) and Aspartate transaminase (AST), blood samples were collected in heparinized tubes and plasma was separated and stored at −80° C. until analysis. ALT and AST were measured using commercial kits (Roche Diagnostics, Germany) on the Cobas™ C-501 autoanalyzer according to the manufacturer's instructions.
structure (smiles),measurement,setting,value
"COc1ccc(-c2nc(C(=O)NCCN)cc3c2[nH]c2ccccc23)cc1 [Compound 4a, N(-ethylamine)-1-benzosubstituted-β-carboline-3-carboxamide]","anti-type I collagen (col1a1) staining, representative images of liver samples",[1]; end of study,visible change in this fibrosis marker
same,total content of liver collagen type 1 (col1a1) determined by morphometry,[1]; vs DIO-NASH vehicle,reduced total liver col1a1
same,insulin resistance (HOMA-IR),[2],lower insulin resistance compared to the control animals
same,expression of CD36 (lipid metabolism),"[3]; 50 mg p.o., b.i.d, 8 weeks",decreased expression
same,expression of Casp7 and IL18 (hepatocellular cell death),"[3]; 50 mg p.o., b.i.d, 8 weeks",increased expression
same,expression of GLUT4 (insulin signaling),"[3]; 50 mg p.o., b.i.d, 8 weeks",increased expression
same,expression of MAPK and AKT (insulin signaling),"[3]; 50 mg p.o., b.i.d, 8 weeks",decreased expression
same,expression of SQLE (lipid metabolism),"[3]; 50 mg p.o., b.i.d, 8 weeks",increased expression
same,"fibrosis genes related to stellate cell activation, such as Col1a1, Col3a1 and TIMP1","[3]; 50 mg p.o., b.i.d, 8 weeks",reduction
same,"inflammation markers related to monocyte recruitment, such as CD68, CCR2, MAC-2","[3]; 50 mg p.o., b.i.d, 8 weeks",reduction
same,"TLR4, TGFB and TGFBR gene expression (inflammation signaling)","[3]; 50 mg/kg, p.o., b.i.d., 8 weeks",reduction
same,"expression of collagen genes (COL1A1, COL1A2, COL3A1, COL5A1, COL5A2, COL5A3, COL6A1, COL6A2, COL6A3)","[3]; 50 mg/kg, p.o., b.i.d., 8 weeks, vs DIO-NASH vehicle, P<0.001",significantly reduced the expression of the collagen genes
same,number of genes regulated,"[3]; 8 weeks treatment, RNAseq",more than 2000 genes
same,plasma ALT,[4],reduced the plasma ALT levels
same,plasma AST,[4],reduced the plasma AST levels

# Reference: US10857136B2, “Compounds for use in the prevention and/or treatment of non-alcoholic fat liver disease and non-alcoholic steatohepatitis” (SJT MOLECULAR RESEARCH, SL, priority 2017, dated 2020)
